Measurements taken from patent publication US20180250303A1, “TGF BETA RECEPTOR ANTAGONISTS” (BRISTOL-MYERS SQUIBB COMPANY, priority 2015, published 2018).

What was measured:
[1] = target: HIS-TGFβR2 WT (Homo sapiens, UniProt P37173); assay: HTRF probe displacement assay, TGFβR2 HIS WT; assay type: binding; conditions: 1 nM HIS-TGFβR2 WT, labeled probe at Kd, 1 hour at room temperature
Procedure: (§1) Compounds were dissolved at 10 mM in dimethylsulfoxide (DMSO) and evaluated at eleven concentrations. IC50 values were derived by non-linear regression analysis.

[2] = target: T1, HIS-TGFβR1 T204D (Homo sapiens, UniProt P36897, T204D); assay: HTRF probe displacement assay, TGFβR1 HIS T204D; assay type: binding; conditions: 1 nM HIS-TGFβR1 T204D, labeled probe at Kd, 1 hour at room temperature
T1 sequence (P36897 34-503 T204D): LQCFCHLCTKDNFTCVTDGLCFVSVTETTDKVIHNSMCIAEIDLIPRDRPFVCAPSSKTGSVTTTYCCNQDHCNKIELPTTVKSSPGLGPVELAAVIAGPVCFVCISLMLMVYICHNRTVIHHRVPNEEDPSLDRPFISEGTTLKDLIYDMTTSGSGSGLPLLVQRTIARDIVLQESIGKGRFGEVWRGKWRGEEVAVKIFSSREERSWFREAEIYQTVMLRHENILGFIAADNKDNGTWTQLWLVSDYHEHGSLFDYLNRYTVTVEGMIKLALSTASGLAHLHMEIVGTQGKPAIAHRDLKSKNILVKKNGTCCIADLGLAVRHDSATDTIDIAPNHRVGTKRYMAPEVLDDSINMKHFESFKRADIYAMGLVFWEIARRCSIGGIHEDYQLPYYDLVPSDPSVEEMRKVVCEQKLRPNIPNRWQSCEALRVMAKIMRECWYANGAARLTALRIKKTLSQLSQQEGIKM
Procedure: as §1

HIS-TGFβR2 WT, sequence (P37173 23-567): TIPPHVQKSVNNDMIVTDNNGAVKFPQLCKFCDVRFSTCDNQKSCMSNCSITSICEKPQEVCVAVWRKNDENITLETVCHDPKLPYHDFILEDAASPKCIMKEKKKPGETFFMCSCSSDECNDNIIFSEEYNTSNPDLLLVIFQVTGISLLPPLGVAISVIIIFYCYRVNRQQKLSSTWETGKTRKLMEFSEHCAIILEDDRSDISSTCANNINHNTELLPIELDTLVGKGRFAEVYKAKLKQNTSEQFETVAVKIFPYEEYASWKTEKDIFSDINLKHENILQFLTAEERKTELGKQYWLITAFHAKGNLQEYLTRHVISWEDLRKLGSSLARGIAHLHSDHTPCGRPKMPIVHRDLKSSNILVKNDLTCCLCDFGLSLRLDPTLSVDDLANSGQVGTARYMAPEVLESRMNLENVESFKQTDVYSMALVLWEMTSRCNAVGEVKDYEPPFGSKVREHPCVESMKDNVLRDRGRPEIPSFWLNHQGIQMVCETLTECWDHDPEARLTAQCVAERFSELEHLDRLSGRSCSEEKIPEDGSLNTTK

| Structure (SMILES) | IC50 [1] [nM] | IC50 [2] [nM] |
| --- | --- | --- |
| Fc1cnccc1Nc1nc(-c2cccc(C(F)F)n2)nc2[nH]cnc12 [Example 2, 2-(6-(difluoromethyl)pyridin-2-yl)-N-(3-fluoropyridin-4-yl)-9H-Purin-6-amine] | 3100 | 0.41 |
| Fc1cnccc1Nc1nc(-c2cccc(C(F)(F)F)n2)nc2[nH]cnc12 [Example 3, N-(3-fluoropyridin-4-yl)-2-(6-(trifluoromethyl)pyridin-2-yl)-9H-Purin-6-amine] | > 15000 | 1.1 |
| Cc1nc(-c2nc(Nc3ccncc3F)c3nc[nH]c3n2)ccc1F [Example 5, 2-(5-fluoro-6-methylpyridin-2-yl)-N-(3-fluoropyridin-4-yl)-9H-Purin-6-amine] | 2800 | 0.36 |
| CC(=O)Nc1cc(Nc2nc(-c3cccc(C)n3)nc3[nH]cnc23)ccn1 [Example 6, N-(4-((2-(6-methylpyridin-2-yl)-9H-Purin-6-yl)amino)pyridin-2-yl)acetamide] | 440 | 0.36 |
| CC(=O)Nc1cc(Nc2nc(-c3cccc(C(F)F)n3)nc3[nH]cnc23)ccn1 [Example 7, N-(4-((2-(6-(difluoromethyl)pyridin-2-yl)-9H-Purin-6-yl)amino)pyridin-2-yl)acetamide] | 520 | 0.72 |
| CC(=O)Nc1cc(Nc2nc(-c3ccccn3)nc3[nH]cnc23)ccn1 [Example 9, N-(4-((2-(pyridin-2-yl)-9H-Purin-6-yl)amino)pyridin-2-yl)acetamide] | 140 | 0.9 |
| CC(=O)Nc1nccc(Nc2nc(-c3cccc(C(F)(F)F)n3)nc3[nH]cnc23)c1F [Example 12, N-(3-fluoro-4-((2-(6-(trifluoromethyl)pyridin-2-yl)-9H-Purin-6-yl)amino)pyridin-2-yl)acetamide] | > 15000 | 8.9 |
| CC(=O)Nc1cc(Nc2nc(-c3cccc(C(F)(F)F)n3)nc3[nH]c(C)nc23)c(F)cn1 [Example 15, N-(5-fluoro-4-((8-methyl-2-(6-(trifluoromethyl)pyridin-2-yl)-9H-Purin-6-yl)amino)pyridin-2-yl)acetamide] | > 15000 | 51 |
| Cc1nc2c(Nc3ccncc3F)nc(-c3cccc(C(F)(F)F)n3)nc2[nH]1 [Example 16, N-(3-fluoropyridin-4-yl)-8-methyl-2-(6-(trifluoromethyl)pyridin-2-yl)-9H-Purin-6-amine] | > 15000 | 5.3 |
| CC(=O)Nc1cc(Nc2nc(-c3cccc(C(F)(F)F)n3)nc3[nH]c(C4CC4)nc23)ccn1 [Example 17, N-(4-((8-cyclopropyl-2-(6-(trifluoromethyl)pyridin-2-yl)-9H-Purin-6-yl)amino)pyridin-2-yl)acetamide] | > 15000 | 1.6 |
| CC(=O)Nc1cc(Nc2nc(-c3ccc(F)c(C)n3)nc3[nH]cnc23)ccn1 [Example 24, N-(4-((2-(5-fluoro-6-methylpyridin-2-yl)-9H-purin-6-yl)amino)pyridin-2-yl)acetamide] | 290 | 0.34 |

The next lines start with the values.

| IC50 [1] [nM] | IC50 [2] [nM] | Structure (SMILES) |
| --- | --- | --- |
| 1300 | – | CC(=O)Nc1cc(Nc2nc(-c3cccc(C(F)(F)F)n3)nc3[nH]cnc23)ccn1 [Example 8, N-(4-((2-(6-(trifluoromethyl)pyridin-2-yl)-9H-Purin-6-yl)amino)pyridin-2-yl)acetamide] |
| > 15000 | 1.6 | CC(=O)Nc1cc(Nc2nc(-c3cccc(C(F)(F)F)n3)nc3[nH]c(C)nc23)ccn1 [Example 14, N-(4-((8-methyl-2-(6-(trifluoromethyl)pyridin-2-yl)-9H-Purin-6-yl)amino)pyridin-2-yl)acetamide] |
| > 15000 | 2 | COC(=O)Nc1cc(Nc2nc(-c3cccc(C(F)(F)F)n3)nc3[nH]cnc23)ccn1 [Example 19, Methyl (4-((2-(6-(trifluoromethyl)pyridin-2-yl)-9H-purin-6-yl)amino)pyridin-2-yl)carbamate] |
| 470 | 0.56 | O=C(Nc1cc(Nc2nc(-c3cccc(C(F)(F)F)n3)nc3[nH]cnc23)ccn1)C1CC1 [Example 20, N-(4-((2-(6-(trifluoromethyl)pyridin-2-yl)-9H-purin-6-yl)amino)pyridin-2-yl)cyclopropanecarboxamide] |
| > 15000 | 0.45 | COCC(=O)Nc1cc(Nc2nc(-c3cccc(C(F)(F)F)n3)nc3[nH]cnc23)ccn1 [Example 21, 2-methoxy-N-(4-((2-(6-(trifluoromethyl)pyridin-2-yl)-9H-purin-6-yl)amino)pyridin-2-yl)acetamide] |
| > 15000 | 1.1 | COCCC(=O)Nc1cc(Nc2nc(-c3cccc(C(F)(F)F)n3)nc3[nH]cnc23)ccn1 [Example 22, 3-methoxy-N-(4-((2-(6-(trifluoromethyl)pyridin-2-yl)-9H-purin-6-yl)amino)pyridin-2-yl)propanamide] |
| > 15000 | 0.48 | O=C(CCC(F)(F)F)Nc1cc(Nc2nc(-c3cccc(C(F)(F)F)n3)nc3[nH]cnc23)ccn1 [Example 23, 4,4,4-trifluoro-N-(4-((2-(6-(trifluoromethyl)pyridin-2-yl)-9H-purin-6-yl)amino)pyridin-2-yl)butanamide] |
